Results on 27 compounds are retold here after patent US8575183B2, “Heterocyclic compounds and their uses” (priority 2010, dated 2013).

pKi: −log10 of the molar value. Where “and” joins values, the source holds several entries; their conditions need not be identical. Identical values can stand only once.

T1 sequence (O00329 whole entry): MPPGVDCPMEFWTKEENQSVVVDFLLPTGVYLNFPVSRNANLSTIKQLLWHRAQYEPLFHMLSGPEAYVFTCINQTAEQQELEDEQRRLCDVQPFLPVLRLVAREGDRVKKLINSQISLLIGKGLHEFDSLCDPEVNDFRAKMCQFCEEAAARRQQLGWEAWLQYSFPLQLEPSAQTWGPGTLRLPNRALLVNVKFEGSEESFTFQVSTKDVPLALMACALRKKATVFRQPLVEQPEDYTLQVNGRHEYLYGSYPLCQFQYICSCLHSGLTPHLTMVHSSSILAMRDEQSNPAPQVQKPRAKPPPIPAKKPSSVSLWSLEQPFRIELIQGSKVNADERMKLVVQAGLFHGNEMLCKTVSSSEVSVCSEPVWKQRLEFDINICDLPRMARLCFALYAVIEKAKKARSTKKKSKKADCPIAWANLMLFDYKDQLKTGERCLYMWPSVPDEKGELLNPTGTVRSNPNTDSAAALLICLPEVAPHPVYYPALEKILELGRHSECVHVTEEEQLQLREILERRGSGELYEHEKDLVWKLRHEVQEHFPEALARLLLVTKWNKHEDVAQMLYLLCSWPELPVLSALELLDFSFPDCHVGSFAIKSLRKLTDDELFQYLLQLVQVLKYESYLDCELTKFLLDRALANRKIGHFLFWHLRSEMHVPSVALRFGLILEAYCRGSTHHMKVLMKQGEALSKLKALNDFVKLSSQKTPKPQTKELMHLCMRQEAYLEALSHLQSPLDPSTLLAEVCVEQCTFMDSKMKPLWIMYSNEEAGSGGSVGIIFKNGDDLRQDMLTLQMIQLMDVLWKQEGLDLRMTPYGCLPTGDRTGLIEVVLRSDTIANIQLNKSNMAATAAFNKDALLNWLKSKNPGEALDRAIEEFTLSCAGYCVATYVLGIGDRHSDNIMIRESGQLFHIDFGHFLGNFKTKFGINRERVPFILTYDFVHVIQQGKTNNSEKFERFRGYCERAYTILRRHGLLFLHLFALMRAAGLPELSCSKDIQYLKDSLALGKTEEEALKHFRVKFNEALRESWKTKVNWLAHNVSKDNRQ
T1 sequence (P27986 whole entry partner): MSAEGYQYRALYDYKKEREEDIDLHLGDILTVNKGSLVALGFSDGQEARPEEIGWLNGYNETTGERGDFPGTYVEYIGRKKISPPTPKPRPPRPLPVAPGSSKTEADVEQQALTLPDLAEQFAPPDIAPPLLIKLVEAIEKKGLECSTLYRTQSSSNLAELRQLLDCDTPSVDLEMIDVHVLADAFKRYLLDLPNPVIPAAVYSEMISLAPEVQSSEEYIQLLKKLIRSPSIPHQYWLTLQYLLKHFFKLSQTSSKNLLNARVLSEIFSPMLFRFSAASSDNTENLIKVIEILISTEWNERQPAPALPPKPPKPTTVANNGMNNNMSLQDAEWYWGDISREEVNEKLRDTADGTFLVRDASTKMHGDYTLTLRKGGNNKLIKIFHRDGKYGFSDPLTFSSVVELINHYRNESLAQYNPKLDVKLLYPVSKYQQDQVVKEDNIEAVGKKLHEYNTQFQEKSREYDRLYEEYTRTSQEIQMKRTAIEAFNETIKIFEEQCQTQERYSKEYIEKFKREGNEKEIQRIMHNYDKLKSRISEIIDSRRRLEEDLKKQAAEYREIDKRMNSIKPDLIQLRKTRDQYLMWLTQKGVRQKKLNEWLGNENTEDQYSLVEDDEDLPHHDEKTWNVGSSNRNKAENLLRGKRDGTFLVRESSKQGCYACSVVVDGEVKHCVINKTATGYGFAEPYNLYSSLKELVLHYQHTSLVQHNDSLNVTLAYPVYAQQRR
Chain of P110β (P42338 whole entry): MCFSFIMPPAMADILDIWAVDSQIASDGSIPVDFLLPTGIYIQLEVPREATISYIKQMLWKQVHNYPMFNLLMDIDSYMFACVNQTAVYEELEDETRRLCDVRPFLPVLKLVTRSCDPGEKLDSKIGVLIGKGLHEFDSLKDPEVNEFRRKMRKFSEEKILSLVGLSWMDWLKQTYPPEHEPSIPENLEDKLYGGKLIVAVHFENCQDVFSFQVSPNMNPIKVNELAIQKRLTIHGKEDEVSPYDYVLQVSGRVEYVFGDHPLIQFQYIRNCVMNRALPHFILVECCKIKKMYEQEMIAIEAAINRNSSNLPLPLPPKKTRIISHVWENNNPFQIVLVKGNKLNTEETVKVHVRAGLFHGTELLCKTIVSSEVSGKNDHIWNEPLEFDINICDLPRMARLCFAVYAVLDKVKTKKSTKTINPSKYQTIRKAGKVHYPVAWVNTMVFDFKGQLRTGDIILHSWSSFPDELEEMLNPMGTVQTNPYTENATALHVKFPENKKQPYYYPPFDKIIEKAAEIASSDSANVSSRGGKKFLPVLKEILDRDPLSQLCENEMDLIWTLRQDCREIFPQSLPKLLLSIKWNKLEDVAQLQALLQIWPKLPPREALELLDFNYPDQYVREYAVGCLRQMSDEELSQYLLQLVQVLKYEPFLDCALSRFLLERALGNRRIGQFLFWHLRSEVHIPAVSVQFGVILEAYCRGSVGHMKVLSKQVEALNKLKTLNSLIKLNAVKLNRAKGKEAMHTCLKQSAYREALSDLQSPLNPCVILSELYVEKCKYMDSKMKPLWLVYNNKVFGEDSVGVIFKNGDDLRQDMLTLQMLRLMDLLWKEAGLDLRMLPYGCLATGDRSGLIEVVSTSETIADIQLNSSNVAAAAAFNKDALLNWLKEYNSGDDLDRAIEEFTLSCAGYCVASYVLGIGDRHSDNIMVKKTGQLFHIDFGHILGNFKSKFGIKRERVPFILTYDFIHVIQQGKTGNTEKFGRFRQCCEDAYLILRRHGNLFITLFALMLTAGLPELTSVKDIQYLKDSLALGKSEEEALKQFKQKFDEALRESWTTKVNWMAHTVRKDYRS
Chain of P110β (P27986 whole entry partner): as the sequence (P27986 whole entry partner) above

One experiment addresses P110β (Homo sapiens, UniProt P42338).
Assay: not given
The note with it: cited from earlier work.
Consider `Cc1cc(C(C)Nc2ccccc2)c2nc(N3CCOCC3)cc(=O)n2c1` (centres unmarked) [TGX-221], for which the potency on beta is 0.007 µM.

A further experiment concerns the target T1, PI3k δ (Homo sapiens, UniProt O00329).
T1 construct: Full length p110 subunits of PI3k α, β and δ; polyHis (N); made in house; host or cells: Sf9 insect cells (baculovirus)
The experiment in a line: biochemical. The note with it: read-out: PI3k δ Ki. It is filed as biochemical. The method, then: Full length p110 subunits of PI3k α, β and δ, N-terminally labeled with polyHis tag, were coexpressed with p85 with Baculo virus expression vectors in sf9 insect cells. P110/p85 heterodimers were purified by sequential Ni-NTA, Q-HP, Superdex-100 chromatography. Purified α, β and δ isozymes were stored at −20° C. in 20 mM Tris, pH 8, 0.2M NaCl, 50% glycerol, 5 mM DTT, 2 mM Na cholate. […] The γ isozyme was purified by sequential Ni-NTA, Superdex-200, Q-HP chromatography. The γ isozyme was stored frozen at −80° C. in NaH2PO4, pH 8, 0.2M NaCl, 1% ethylene glycol, 2 mM β-mercaptoethanol.
Phospatidyl inositol phosphoacceptor, Ptdlns(4,5)P2 P4508, was from Echelon Biosciences. […] Test compounds were dissolved in dimethyl sulfoxide and diluted with three-fold serial dilutions. The compound in DMSO (1 μL) was added per test well, and the inhibition relative to reactions containing no compound, with and without enzyme was determined. After assay incubation at rt, the reaction was stopped and residual ATP determined by addition of an equal volume of a commercial ATP bioluminescence kit (Perkin Elmer EasyLite) according to the manufacturer's instructions, and detected using a AnalystGT luminometer.
Take `C[C@H](Nc1ncnc(N)c1C#N)c1nc2c(F)cc(F)cc2n1-c1cccnc1` [4-amino-6-(((1S)-1-(4,6-difluoro-1-(3-pyridinyl)-1H-benzimidazol-2-yl)ethyl)amino)-5-pyrimidinecarbonitrile]: the pKi was 8.17.

In the case of `C[C@H](Nc1ncnc(N)c1C#N)c1nc2c(F)cccc2n1-c1cncc(F)c1` [4-amino-6-(((1S)-1-(4-fluoro-1-(5-fluoro-3-pyridinyl)-1H-benzimidazol-2-yl)ethyl)amino)-5-pyrimidinecarbonitrile], the negative logarithm of the Ki (pKi) is 7.33.

With `C[C@H](Nc1ncnc(N)c1C#N)c1nc2cc(F)c(F)cc2n1-c1cncc(F)c1` [4-amino-6-(((1S)-1-(5,6-difluoro-1-(5-fluoro-3-pyridinyl)-1H-benzimidazol-2-yl)ethyl)amino)-5-pyrimidinecarbonitrile], the pKi was 7.24.

Consider `C[C@H](Nc1ncnc(N)c1C#N)c1nc2cccc(C(=O)N3CCN(C)CC3)n2c1-c1ccccc1` [4-amino-6-(((1S)-1-(5-((4-methyl-1-piperazinyl)carbonyl)-3-phenylimidazo[1,2-a]pyridin-2-yl)ethyl)amino)-5-pyrimidinecarbonitrile], for which the negative logarithm of the Ki (pKi) was 7.93.

In the case of `CSc1cccc(-n2c([C@H](C)Nc3ncnc(N)c3C#N)nc3cc(F)ccc32)c1` [4-amino-6-(((1S)-1-(5-fluoro-1-(3-(methylsulfanyl)phenyl)-1H-benzimidazol-2-yl)ethyl)amino)-5-pyrimidinecarbonitrile], the pKi was 7.36.

As for `C[C@H](Nc1ncnc(N)c1C#N)c1nc2cc(F)ccc2n1-c1cncc(F)c1` [4-amino-6-(((1S)-1-(5-fluoro-1-(5-fluoro-3-pyridinyl)-1H-benzimidazol-2-yl)ethyl)amino)-5-pyrimidinecarbonitrile], the pKi was 7.02.

With `C[C@H](Nc1ncnc(N)c1C#N)c1nc2cc(F)ccc2n1-c1ccccc1` [4-amino-6-(((1S)-1-(5-fluoro-1-phenyl-1H-benzimidazol-2-yl)ethyl)amino)-5-pyrimidinecarbonitrile], the pKi is 8.77.

Regarding `C[C@H](Nc1ncnc(N)c1C#N)c1nc2ccc(Cl)cc2n1-c1cc(F)cc(F)c1` [4-amino-6-(((1S)-1-(6-chloro-1-(3,5-difluorophenyl)-1H-benzimidazol-2-yl)ethyl)amino)-5-pyrimidinecarbonitrile], the pKi is 8.57.

As to `C[C@H](Nc1ncnc(N)c1C#N)c1nc2ccc(F)cc2n1-c1cccc(-c2ccccn2)c1` [4-amino-6-(((1S)-1-(6-fluoro-1-(3-(2-pyridinyl)phenyl)-1H-benzimidazol-2-yl)ethyl)amino)-5-pyrimidinecarbonitrile], the pKi was 8.05 and 8.42.

As for `C[C@H](Nc1ncnc(N)c1C#N)c1nc2ccc(F)cc2n1-c1cccc(F)n1` [4-amino-6-(((1S)-1-(6-fluoro-1-(6-fluoro-2-pyridinyl)-1H-benzimidazol-2-yl)ethyl)amino)-5-pyrimidinecarbonitrile], the negative logarithm of the Ki (pKi) was 8.05.

In the case of `C[C@H](Nc1ncnc(N)c1C#N)c1nc2cccc(S(C)(=O)=O)c2[nH]1` [4-amino-6-(((1S)-1-(7-(methylsulfonyl)-1H-benzimidazol-2-yl)ethyl)amino)-5-pyrimidinecarbonitrile], the pKi is 7.34.

Turning to `C[C@H](Nc1ncnc(N)c1C#N)c1nc2cccc(Br)c2n1-c1cncc(F)c1` [4-amino-6-(((1S)-1-(7-bromo-1-(5-fluoro-3-pyridinyl)-1H-benzimidazol-2-yl)ethyl)amino)-5-pyrimidinecarbonitrile], the pKi is 7.32.

For `C[C@H](Nc1ncnc(N)c1C#N)c1nc2cccc(F)c2[nH]1` [4-amino-6-(((1S)-1-(7-fluoro-1H-benzimidazol-2-yl)ethyl)amino)-5-pyrimidinecarbonitrile], the pKi is 6.76.

For the compound `N#Cc1c(N)ncnc1NCc1nc2c(Cl)cccn2c1-c1ccccc1` [4-amino-6-(((8-chloro-3-phenylimidazo[1,2-a]pyridin-2-yl)methyl)amino)-5-pyrimidinecarbonitrile], the pKi was 6.64.

Turning to `C[C@@H](Nc1ncnc(N)c1C#N)c1nc2ccc(F)cc2n1-c1cncc(NS(C)(=O)=O)c1` [N-(5-(2-((1R)-1-((6-amino-5-cyano-4-pyrimidinyl)amino)ethyl)-6-fluoro-1H-benzimidazol-1-yl)-3-pyridinyl)methanesulfonamide], the pKi was 6.22.

For the compound `C[C@H](Nc1ncnc(N)c1C#N)c1nc2ccc(F)cc2n1-c1cncc(NS(C)(=O)=O)c1` [N-(5-(2-((1S)-1-((6-amino-5-cyano-4-pyrimidinyl)amino)ethyl)-6-fluoro-1H-benzimidazol-1-yl)-3-pyridinyl)methanesulfonamide], the pKi is 7.92.

`CC[C@H](Nc1ncnc2[nH]cnc12)c1nc2cccc(C(F)(F)F)c2n1CC1CC1` [N-((1S)-1-(1-(cyclopropylmethyl)-7-(trifluoromethyl)-1H-benzimidazol-2-yl)propyl)-9H-purin-6-amine]: the negative-log Ki (pKi) was 7.00.

As for `C[C@H](Nc1ncnc2[nH]cnc12)c1nc2ccc(Cl)cc2n1-c1cc(F)cc(F)c1` [N-((1S)-1-(6-chloro-1-(3,5-difluorophenyl)-1H-benzimidazol-2-yl)ethyl)-9H-purin-6-amine], the pKi was 8.08.

With `C[C@H](Nc1ncnc2[nH]cnc12)c1nc2ccc(F)cc2n1-c1cccc(F)c1` [N-((1S)-1-(6-fluoro-1-(3-fluorophenyl)-1H-benzimidazol-2-yl)ethyl)-9H-purin-6-amine], the pKi was 8.57.

In the case of `C[C@H](Nc1ncnc2[nH]cnc12)c1nc2ccc(F)cc2n1-c1cncc(F)c1` [N-((1S)-1-(6-fluoro-1-(5-fluoro-3-pyridinyl)-1H-benzimidazol-2-yl)ethyl)-9H-purin-6-amine], the pKi was 8.42.

Consider `C[C@H](Nc1ncnc2[nH]cnc12)c1nc2cccc(F)c2[nH]1` [N-((1S)-1-(7-fluoro-1H-benzimidazol-2-yl)ethyl)-9H-purin-6-amine], for which the pKi was 6.19.

On to `COC(=O)c1cccc2nc([C@H](C)Nc3ncnc(N)c3C#N)c(-c3cccnc3)n12` [methyl 2-((1S)-1-((6-amino-5-cyano-4-pyrimidinyl)amino)ethyl)-3-(3-pyridinyl)imidazo[1,2-a]pyridine-5-carboxylate], for which the pKi is 6.83.

In the case of `COC(=O)c1cccc2nc([C@H](C)Nc3ncnc(N)c3C#N)c(-c3cncc(F)c3)n12` [methyl 2-((1S)-1-((6-amino-5-cyano-4-pyrimidinyl)amino)ethyl)-3-(5-fluoro-3-pyridinyl)imidazo[1,2-a]pyridine-5-carboxylate], the pKi is 6.50.

On to `COC(=O)c1cccc2nc([C@H](C)Nc3ncnc(N)c3C#N)c(-c3ccccc3)n12` [methyl 2-((1S)-1-((6-amino-5-cyano-4-pyrimidinyl)amino)ethyl)-3-phenylimidazo[1,2-a]pyridine-5-carboxylate], for which the pKi was 7.41.

Another experiment has as its system Class I PI3 kinase isoforms.
Assay: not given
The note with it: beta over delta; cited from earlier work.
In the case of `Cc1cc(C(C)Nc2ccccc2)c2nc(N3CCOCC3)cc(=O)n2c1` (centres unmarked) [TGX-221], the selectivity over delta is given as 14 fold.

The experiment is the same for the next values; noted with them: beta over gamma and alpha; cited from earlier work.
Take `Cc1cc(C(C)Nc2ccccc2)c2nc(N3CCOCC3)cc(=O)n2c1` (centres unmarked) [TGX-221]: the “selectivity over gamma and alpha” value is on record as “more than 500 fold”.

The next experiment deals with model of systemic lupus erythematosis.
Assay: not given
The note with it: in vivo; cited from earlier work.
For `O=C1NC(=O)/C(=C\c2ccc3nccnc3c2)S1` [AS 605240], the “onset of disease in a model of systemic lupus erythematosis” value is reported as “delay onset of disease”.

The test system of a further experiment is murine model of asthma.
Assay: not given
The note with it: ovalbumin-induced airway inflammation; cited from earlier work.
As for `Cc1ccccc1-n1c(Cn2cnc3c(N)ncnc32)nc2cccc(C)c2c1=O` [IC87114], the “inflammation and disease in a murine model of asthma” value is “significantly ameliorate inflammation and disease”.

The next experiment deals with protein kinases.
Assay: not given
The note with it: cited from earlier work.
As to `Cc1ccccc1-n1c(Cn2cnc3c(N)ncnc32)nc2cccc(C)c2c1=O` [IC87114], the “activity against any protein kinases tested” value is reported as “no activity”.

For a further experiment, the system named is mouse model of rheumatoid arthritis.
Assay: not given
The note with it: in vivo; cited from earlier work.
For `O=C1NC(=O)/C(=C\c2ccc3nccnc3c2)S1` [AS 605240], the “efficacy in a mouse model of rheumatoid arthritis” value is given as “efficacious”.

For another experiment, the target named is p110δ (Homo sapiens, UniProt O00329).
Chain of p110δ (O00329 whole entry): as the sequence (O00329 whole entry) above
Chain of p110δ (P27986 whole entry partner): as the sequence (P27986 whole entry partner) above
Assay: not given
The note with it: cited from earlier work.
Consider `Cc1ccccc1-n1c(Cn2cnc3c(N)ncnc32)nc2cccc(C)c2c1=O` [IC87114], for which the “inhibition of p110δ” value is reported as “high nanomolar range (triple digit)”.

Usually pKi stands for the negative decadic logarithm of the Ki, by convention in mol/L.
